{"source": "the supplement of paper PMC8671470", "assay_in_all_cases": "cell viability (% survival relative to DMSO control); higher = less cytotoxic", "details_in_all_cases": "72 h", "key": {"[1]": {"system": "myeloid leukemia patient primary cells Pat.10", "procedure,_shortened": "(§1)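 Where an area under the curve appears, it was computed with the drc and PharmacoGx R packages from log-logistic fits. Those fits used four parameters. The underlying viability data came from CellTiter-Glo after 72 h, normalised to DMSO and 10 μM proteasome-inhibitor wells, with thawed, Ficoll-purified AML or CML patient mononuclear cells at 10,000 cells/well in RPMI 1640 with 10% FBS on 384-well plates pre-printed with 70 compounds at five tenfold concentrations (1–10,000 nM) in duplicate.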"}, "[2]": {"system": "myeloid leukemia patient primary cells Pat.11", "procedure,_shortened": "as §1"}, "[3]": {"system": "myeloid leukemia patient primary cells Pat.12", "procedure,_shortened": "as §1"}, "[4]": {"system": "myeloid leukemia patient primary cells Pat.13", "procedure,_shortened": "as §1"}, "[5]": {"system": "myeloid leukemia patient primary cells Pat.14", "procedure,_shortened": "as §1"}, "[6]": {"system": "myeloid leukemia patient primary cells Pat.15", "procedure,_shortened": "as §1"}, "[7]": {"system": "myeloid leukemia patient primary cells Pat.1", "procedure,_shortened": "as §1"}, "[8]": {"system": "myeloid leukemia patient primary cells Pat.2", "procedure,_shortened": "as §1"}, "[9]": {"system": "myeloid leukemia patient primary cells Pat.3", "procedure,_shortened": "as §1"}, "[10]": {"system": "myeloid leukemia patient primary cells Pat.4", "procedure,_shortened": "as §1"}}, "data": [{"compound": "O=c1[nH]c(=O)n([C@H]2C[C@H](O)[C@@H](CO)O2)cc1I", "note": "[Idoxuridine]", "values": [{"measurement": "cell viability", "setting": "[1]; 1 nM", "result": 76.4, "unit": "%"}, {"measurement": "cell viability", "setting": "[1]; 10 nM", "result": 55.7, "unit": "%"}, {"measurement": "cell viability", "setting": "[1]; 100 nM", "result": 61.4, "unit": "%"}, {"measurement": "cell viability", "setting": "[1]; 1000 nM", "result": 41.6, "unit": "%"}, {"measurement": "cell viability", "setting": "[1]; 10000 nM", "result": "> 100", "unit": "%"}, {"measurement": "cell viability", "setting": "[2]; 1 nM", "result": "> 100", "unit": "%"}, {"measurement": "cell viability", "setting": "[2]; 10 nM", "result": 95.9, "unit": "%"}, {"measurement": "cell viability", "setting": "[2]; 100 nM", "result": 96.4, "unit": "%"}, {"measurement": "cell viability", "setting": "[2]; 1000 nM", "result": 90.7, "unit": "%"}, {"measurement": "cell viability", "setting": "[2]; 10000 nM", "result": "> 100", "unit": "%"}, {"measurement": "cell viability", "setting": "[3]; 1 nM", "result": 95.6, "unit": "%"}, {"measurement": "cell viability", "setting": "[3]; 10 nM", "result": 95.6, "unit": "%"}, {"measurement": "cell viability", "setting": "[3]; 100 nM", "result": 99, "unit": "%"}, {"measurement": "cell viability", "setting": "[3]; 1000 nM", "result": 87.3, "unit": "%"}, {"measurement": "cell viability", "setting": "[3]; 10000 nM", "result": 99.1, "unit": "%"}, {"measurement": "cell viability", "setting": "[4]; 1 nM", "result": 91, "unit": "%"}, {"measurement": "cell viability", "setting": "[4]; 10 nM", "result": 84.4, "unit": "%"}, {"measurement": "cell viability", "setting": "[4]; 100 nM", "result": 83.4, "unit": "%"}, {"measurement": "cell viability", "setting": "[4]; 1000 nM", "result": 74.8, "unit": "%"}, {"measurement": "cell viability", "setting": "[4]; 10000 nM", "result": 91.9, "unit": "%"}, {"measurement": "cell viability", "setting": "[5]; 1 nM", "result": 82.1, "unit": "%"}, {"measurement": "cell viability", "setting": "[5]; 10 nM", "result": 75.7, "unit": "%"}, {"measurement": "cell viability", "setting": "[5]; 100 nM", "result": 92.2, "unit": "%"}, {"measurement": "cell viability", "setting": "[5]; 1000 nM", "result": 58.6, "unit": "%"}, {"measurement": "cell viability", "setting": "[5]; 10000 nM", "result": "> 100", "unit": "%"}, {"measurement": "cell viability", "setting": "[6]; 1 nM", "result": 92.5, "unit": "%"}, {"measurement": "cell viability", "setting": "[6]; 10 nM", "result": 93.5, "unit": "%"}, {"measurement": "cell viability", "setting": "[6]; 100 nM", "result": 93.7, "unit": "%"}, {"measurement": "cell viability", "setting": "[6]; 1000 nM", "result": 90.3, "unit": "%"}, {"measurement": "cell viability", "setting": "[6]; 10000 nM", "result": 94.7, "unit": "%"}, {"measurement": "cell viability", "setting": "[7]; 1 nM", "result": 84.3, "unit": "%"}, {"measurement": "cell viability", "setting": "[7]; 10 nM", "result": 81.5, "unit": "%"}, {"measurement": "cell viability", "setting": "[7]; 100 nM", "result": 95, "unit": "%"}, {"measurement": "cell viability", "setting": "[7]; 1000 nM", "result": 74.3, "unit": "%"}, {"measurement": "cell viability", "setting": "[7]; 10000 nM", "result": 95.4, "unit": "%"}, {"measurement": "cell viability", "setting": "[8]; 1 nM", "result": "> 100", "unit": "%"}, {"measurement": "cell viability", "setting": "[8]; 10 nM", "result": 90, "unit": "%"}, {"measurement": "cell viability", "setting": "[8]; 100 nM", "result": 94.9, "unit": "%"}, {"measurement": "cell viability", "setting": "[8]; 1000 nM", "result": 84.2, "unit": "%"}, {"measurement": "cell viability", "setting": "[8]; 10000 nM", "result": 98.2, "unit": "%"}, {"measurement": "cell viability", "setting": "[9]; 1 nM", "result": 19.5, "unit": "%"}, {"measurement": "cell viability", "setting": "[9]; 10 nM", "result": 71.8, "unit": "%"}, {"measurement": "cell viability", "setting": "[9]; 100 nM", "result": 81.6, "unit": "%"}, {"measurement": "cell viability", "setting": "[9]; 1000 nM", "result": 83.6, "unit": "%"}, {"measurement": "cell viability", "setting": "[9]; 10000 nM", "result": 95.1, "unit": "%"}, {"measurement": "cell viability", "setting": "[10]; 1 nM", "result": 99.7, "unit": "%"}, {"measurement": "cell viability", "setting": "[10]; 10 nM", "result": 82.4, "unit": "%"}]}]}
